Experimental data published in patent publication US10980798B2, “Pharmaceutical compositions of hydrophobic camptothecin derivatives” (Taiwan Liposome Company, Ltd., priority 2011, dated 2021).

Key:
[1] = Aqueous solubility with mPEG2000-DSPE formulation; assay type: physicochemical; conditions: water with mPEG2000-DSPE formulation, aqueous with cosolvent or surfactant or cyclodextrin
Method: In addition, the aqueous solubility of […] increased to 10 mg/mL with mPEG2000-DSPE formulation.

[2] = stated as known; cited from earlier work
[3] = system: LNCap; experiment: SRB cytotoxicity assay, LNCap; assay type: cell-based; conditions: Homo sapiens
Excerpt: (§1) Human hepatoma cell lines Hep3B, HepG2, HepG2/2.2.15, Huh-7 and Sk-Hep-1, human glioblastoma cell line RG-2, and human prostate cancer cell line DU145 were maintained in DMEM (HyClone Laboratories, Logan, Utah, USA). Human prostate cancer cell line LNCap was maintained in RPMI-1640 culture medium (Sigma-Aldrich, St. Louis, Mo., USA). […] Human prostate cancer cell line PC-3 was maintained in the Ham's F-12K medium (Invitrogen, Carlsbad, Calif., USA) with the same medium supplements described in the culture medium except that the fetal bovine serum concentration was reduced to 7% by volume. Cancer cells were maintained at 37° C. in a humidified incubator (Nuaire, USA) containing 5% CO2.
(§2) The SRB assay was used for measuring cancer cell viability. The cancer cells in the plate wells were rinsed with 1× PBS and treated with 1× trypsin-EDTA (Invitrogen, Carlsbad, Calif.). The culture medium was added to dilute the trypsin-EDTA. The detached cancer cells were harvested by centrifugation and suspended in the 1 ml culture medium. Ten μl of the cell suspension was dispensed into counting chambers and the cell density was determined microscopically. The cells in 198 μl suspensions were seeded onto a 96-well cell plate (Nunc, Rochester, N.Y.) at the appropriate cell density per well and incubated in the cell culture incubator overnight.
(§3) We evaluated the ant-cancer activity of the following CPT derivatives pharmaceutical compositions: • 1. TLC388 HCl, a non-water soluble CPT derivative (obtained from ScinoPharm Taiwan Ltd., Taiwan); • 2. […]
(§4) At the end of the incubation period, cells were fixed by adding 50 μl of cold 50% TCA (w/v) (Sigma, St Louis, Mo., USA) to a final concentration of 10% TCA and further incubated at 4° C. for 60 minutes. […] Bound stain in each well was solubilized with 100 μl of 10 mM trizma base (Bioshop, Burlington, ON, Canada), and the absorbance was measured using an automated plate reader (Anthos 2001, Anthos Labtec Instrument) at 540 nm.
(§5) The graph and data were analyzed by SigmaPlot 10.0 software and Microsoft Excel 2002.

[4] = system: HT29; experiment: SRB cytotoxicity assay, HT29 (colon cancer); assay type: cell-based; conditions: Homo sapiens, HT-29; HT29, incubation 72 h
Method: as §2, §3, §4, §5

[5] = system: DU145; experiment: SRB cytotoxicity assay, DU145; assay type: cell-based; conditions: Homo sapiens, DU-145
Excerpt: as §1, §2, §3, §4, §5

[6] = system: HepG2/2.2.15; experiment: SRB cytotoxicity assay, HepG2/2.2.15; assay type: cell-based; conditions: Homo sapiens
Excerpt: as §1, §2, §3, §4, §5

[7] = system: Sk-Hep-1; experiment: SRB cytotoxicity assay, Sk-Hep-1; assay type: cell-based; conditions: Homo sapiens, SK-HEP1
Excerpt: as §1, §2, §3, §4, §5

[8] = system: Huh-7; experiment: SRB cytotoxicity assay, Huh-7; assay type: cell-based; conditions: Homo sapiens
Excerpt: as §1, §2, §3, §4, §5

[9] = system: myeloid CFCs; experiment: Bone marrow suppression evaluation, colony assay, myeloid progenitors; assay type: cell-based; conditions: human bone marrow progenitors, methylcellulose colony assay, 14-16 days
Method: (§6) An in vitro evaluation of the effect of the pharmaceutical compositions on human bone marrow cells was performed.
(§7) Protocol: Clonogenic progenitors of the erythroid (CFU-E, BFU-E), granulocyte-monocyte (CFU-GM) and multipotential lineages (CFU-GEMM) were set up in methylcellulose-based medium (R&D Systems) containing recombinant rhSCF (50 ng/mL), rhIL-3 (10 ng/mL), rhGM-CSF (10 ng/mL),and rhEpo (3 U/mL).
(§8) TLC388 HCl and Topotecan were diluted in DMSO and Lipotecan® was diluted in sterile water to provide the appropriate working stock concentrations. These working stock solutions were subsequently added to the methylcellulose-based colony assay medium described above. The colony assay mediums were set up in triplicate at 2×10^4 cells per culture medium.
(§9) The replicate culture mediums were incubated at 37° C. in 5% CO2 for 14-16 days. After this time, the resultant colonies in the culture medium were evaluated by a senior scientist in term of size and morphology.

[10] = system: erythroid Colony Forming Cells (CFCs); experiment: Bone marrow suppression evaluation, colony assay, erythroid progenitors; assay type: cell-based; conditions: human bone marrow progenitors, methylcellulose colony assay, 14-16 days
Method: as §6, §7, §8, §9

[11] = system: HepG2; experiment: SRB cytotoxicity assay, HepG2; assay type: cell-based; conditions: Homo sapiens
Excerpt: as §1, §2, §3, §4, §5

[12] = system: HCT116; experiment: SRB cytotoxicity assay, HCT116 (colon cancer); assay type: cell-based; conditions: Homo sapiens, HCT-116; HCT116, incubation 72 h
Method: as §2, §3, §4, §5

[13] = system: Hep3B; experiment: SRB cytotoxicity assay, Hep3B; assay type: cell-based; conditions: Homo sapiens
Excerpt: as §1, §2, §3, §4, §5

[14] = system: PC-3; experiment: SRB cytotoxicity assay, PC-3; assay type: cell-based; conditions: Homo sapiens
Excerpt: as §1, §2, §3, §4, §5

[15] = system: RG-2; experiment: SRB cytotoxicity assay, RG-2 glioma cell line; assay type: cell-based; conditions: Homo sapiens, RG2
Excerpt: as §1, §2, §3, §4, §5

In the case of `CC[C@@]1(OC(=O)C(C)(C)ON=C2c3cc([N+](=O)[O-])cc([N+](=O)[O-])c3-c3c2cc([N+](=O)[O-])cc3[N+](=O)[O-])C(=O)OCc2c1cc1n(c2=O)Cc2cc3c(CN(C)C)c(O)ccc3nc2-1.Cl` [TLC1988 HCl, (S)-10-[(dimethylamino)methyl]-4-ethyl-9-hydroxy-4-O-[2-methyl-2-(2″,4″,5″,7″-tetranitro-9″-fluorenylideneaminooxy)propionyl]-1H-pyrano[3′,4′:6,7]indolizino[1,2-b]quinoline-3,14-(4H,12H)-dione, monohydrochloride], the solubility [1] is listed as 10000 µg/mL and the “stability in an alkaline condition” value [2] is listed as “unstable in an alkaline condition”.

In the case of `CC[C@@]1(O)C(=O)OCc2c1cc1n(c2=O)Cc2cc3c(CN(C)C)c(O)ccc3nc2-1` [Topotecan], the IC50 ([3]; incubation 24 h) is reported as 14900 nM, the IC50 ([3]; incubation 48 h) is reported as 6150 nM and the IC50 ([3]; incubation 72 h) is reported as 2590 nM. For the same compound, the IC50 [4] was 38 nM, the IC50 ([5]; DU145, incubation 24 h) was 2250 nM and the IC50 ([5]; DU145, incubation 48 h) was 600 nM. For the same compound, the IC50 ([5]; DU145, incubation 72 h) was 580 nM, the IC50 ([6]; HepG2/2.2.15, incubation 24 h) was over 50000 nM and the IC50 ([6]; HepG2/2.2.15, incubation 48 h) was 63100 nM. The IC50 ([6]; HepG2/2.2.15, incubation 72 h) was 580 nM, the IC50 ([7]; Sk-Hep-1, incubation 24 h) was 74900 nM and the IC50 ([7]; Sk-Hep-1, incubation 48 h) was 12500 nM. For the same compound, the IC50 ([7]; Sk-Hep-1, incubation 72 h) was 2100 nM, the IC50 ([8]; Huh-7, incubation 24 h) was 65300 nM and the IC50 ([8]; Huh-7, incubation 48 h) was 5050 nM. It also gave an IC50 ([8]; Huh-7, incubation 72 h) of 2800 nM, an IC50 [9] of 8.7 nM and an IC50 [10] of 11.8 nM. For the same compound, the IC50 ([11]; HepG2, incubation 24 h) was 57400 nM, the IC50 ([11]; HepG2, incubation 48 h) was 2730 nM and the IC50 ([11]; HepG2, incubation 72 h) was 686 nM. The IC50 [12] was 8 nM, the IC50 ([13]; incubation 24 h) was over 50000 nM and the IC50 ([13]; incubation 48 h) was 64600 nM. The IC50 ([13]; incubation 72 h) was 200 nM, the IC50 ([14]; PC-3, incubation 24 h) was 131000 nM and the IC50 ([14]; PC-3, incubation 48 h) was 18100 nM. It also gave an IC50 ([14]; PC-3, incubation 72 h) of 3580 nM, an IC50 ([15]; RG-2, incubation 24 h) of 7230 nM and an IC50 ([15]; RG-2, incubation 48 h) of 2780 nM. It also gave an IC50 ([15]; RG-2, incubation 72 h) of 3000 nM.
